Measured values from patent US10071076B2, “Methods of treating cancer and other disorders” (Wake Forest University Health Sciences, priority 2010, dated 2018).

Tests used:
[1] = target: recombinant thioesterase TE1 (recombinant FASN-TE) (Homo sapiens, UniProt P49327); test: Recombinant thioesterase inhibition assay (TE1); format: biochemical; conditions: for inhibition at 10 µM: 10 μM compound, 30 min pre-incubation at 37° C., 4-MUH substrate; for IC50: recombinant thioesterase, approximate, read-out: approx, IC50 TE1
Protocol: (§1) Key to Table 2: Recombinant Thioesterase Inhibition Assay.
(§2) Briefly, recombinant FASN-TE (250 nM, 100 mM TRIS pH 7.4, 50 mM NaCl, 1 mM EDTA) was pre-incubated with inhibitors for 30 min at 37° C. prior to the addition of fluorogenic substrate, 4-methylumbelliferyl heptanoate (4-MUH, 120 μM) (56); the reaction was then monitored by following the increase in fluorescence using a Tecan Safire^2 96-well plate reader using 350/450 excitation/emission wavelengths. The IC50 values are then determined for each compound in the series.

[2] = target: recombinant thioesterase TE2 (recombinant FASN-TE) (Homo sapiens, UniProt P49327); test: Recombinant thioesterase inhibition assay (TE2); format: biochemical; conditions: for inhibition at 10 µM: 10 μM compound, 30 min pre-incubation at 37° C., 4-MUH substrate; for IC50: recombinant thioesterase, approximate, read-out: approx, IC50 TE2
Protocol: as §1, §2

[3] = system: intracellular FASN in PC3 cells; test: Inhibition of 14C-acetate incorporation in PC3 cells; format: cell-based; conditions: for % inhibition of 14C-acetate incorp. PC3 cells: two hours drug, then two hour labeling, concentration not given
Protocol: Inhibition of ^14C-Acetate Incorporation in PC3 Cells.
This test ensures that the compound(s) target intracellular FASN correctly. The ability to inhibit FASN activity in cells will be performed by metabolic labeling of newly synthesized fatty acids with ^14C-acetate, as we have described previously. Briefly, PC-3 cells were seeded in 24-well plates at 50,000 cells per well. After 48 hours media was replaced with fresh media containing either drug or DMSO vehicle. As with the toxicity assay described below, the IC50 for the ability to inhibit FASN will also be determined. Cells will be incubated with a dose of each derivative compound that reflects the IC50's determined in the MTS assays. After two hours, 1 μCi of ^14C-acetate was added to each well for a two hour labeling period. The cells are then washed with PBS and collected by trypsinization. Lipids were finally isolated by Folch extraction and quantified by scintillation counting. The IC50 value for each compound against FASN in cells can then be determined.

[4] = system: PC3 prostate tumor cells; test: MTS cell survival assay, PC3; format: cell-based; conditions: doses 1-50 μM, time point not given
Protocol: (§3) Prostate tumor (PC3, DU145) and normal fibroblast controls (FS-4) cells were individually seeded in 96-well plates at a density of 4,000 cells per well. After 48 hours the cells are be treated with a dose of each compound (1-50 μM) or DMSO vehicle in fresh media. Cell viability of each cell line was then determined after 24, 48 and 72 hours of treatment with each compound by MTS assay (Roche). MTS assays provide a relative measure of cell viability based on the ability of mitochondria to metabolize a tetrazolium substrate to a colored formazan product. Viability is determined by colorimetric readout at 492 nm and determined relative to vehicle only treated cells. The IC50 for each drug, at each time point, will be determined by curve fitting.

[5] = system: DU-145 prostate tumor cells; test: MTS cell survival assay, DU-145; format: cell-based; conditions: Homo sapiens, doses 1-50 μM, time point not given
Protocol: as §3

[6] = system: FS-4 normal fibroblast cells; test: MTS cell survival assay, FS-4; format: cell-based; conditions: FS-4 normal fibroblasts, doses 1-50 μM, time point not given
Protocol: as §3

recombinant thioesterase TE1 (recombinant FASN-TE), sequence (P49327 2207-2511 limits assumed): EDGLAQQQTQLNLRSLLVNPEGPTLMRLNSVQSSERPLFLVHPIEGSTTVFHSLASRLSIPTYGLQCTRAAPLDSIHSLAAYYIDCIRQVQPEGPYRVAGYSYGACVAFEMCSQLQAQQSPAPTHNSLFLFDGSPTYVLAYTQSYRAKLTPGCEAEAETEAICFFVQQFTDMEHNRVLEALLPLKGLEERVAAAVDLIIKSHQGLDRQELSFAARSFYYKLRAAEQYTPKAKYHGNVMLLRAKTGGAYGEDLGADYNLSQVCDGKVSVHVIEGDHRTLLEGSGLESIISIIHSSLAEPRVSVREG
recombinant thioesterase TE2 (recombinant FASN-TE), sequence (P49327 2200-2511): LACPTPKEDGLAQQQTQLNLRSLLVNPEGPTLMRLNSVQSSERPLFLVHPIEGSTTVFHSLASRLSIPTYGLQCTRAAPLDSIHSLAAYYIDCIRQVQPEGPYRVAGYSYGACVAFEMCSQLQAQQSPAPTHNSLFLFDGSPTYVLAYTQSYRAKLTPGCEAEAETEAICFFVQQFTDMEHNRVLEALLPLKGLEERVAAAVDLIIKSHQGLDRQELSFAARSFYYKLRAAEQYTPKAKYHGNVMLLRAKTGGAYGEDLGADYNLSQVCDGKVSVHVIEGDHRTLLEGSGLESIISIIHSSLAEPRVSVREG

Structure (SMILES) | inhibition at 10 µM [1] [%] | inhibition at 10 µM [2] [%] | % inhibition of 14C-acetate incorp. PC3 cells [3] [%] | IC50 [4] [µM] | IC50 [5] [µM] | IC50 [1] [nM] | IC50 [2] [nM] | IC50 [6] [µM] | IC50 ([3]; Homo sapiens, PC-3, read-out: IC50 of inhibition of 14C-acetate incorp. PC3 cells) [µM]
COc1cc(O)c2onc(-c3ccccc3)c2c1O [TPI-00401-00-A] | 40 | 55.9 | 29.1 | 33 | > 50 |  |  |  | 
C=C1C=C(SCC)C(=O)c2c(C(=O)OCC)n[nH]c21 [TPI-00402-00-A] | 66.6 | 95.7 | 90.4 | 18.8 | 40 | ~2350 | ~560 | 20.9 | 
C=C1C=C(S)C(=O)c2c(C(=O)OCC)n[nH]c21 [TPI-00403-00-A] | 69.3 | 79.3 | 97 | 3.25 | 15.6 | ~3900 | ~2420 | 9.15 | 6.75
CCOC(=O)c1n[nH]c2c1C(=O)C(SCC(=O)OC)=CC2=O [TPI-00405-00-A] | 69.5 | 96.8 |  |  |  | ~2780 | ~410 |  | 
CCOC(=O)c1n[nH]c2c1C(=O)C(SCc1cccc(F)c1)=CC2=O [TPI-00406-00-A] | 73.6 | 96 | 37.7 |  |  |  |  |  | 
CCOC(=O)c1n[nH]c2c1C(=O)C(SCc1ccc(F)cc1F)=CC2=O [TPI-00407-00-A] | 66 | 94.9 | 37.8 |  |  |  |  |  | 
CCOC(=O)c1n[nH]c2c1C(=O)C(SCc1ccc(C(F)(F)F)cc1)=CC2=O [TPI-00408-00-A] | 67.9 | 96.2 | 89.9 | 18.5 |  |  |  | 22.5 | 
CCOC(=O)c1n[nH]c2c1C(=O)C(SCC(=O)NC)=CC2=O [TPI-00409-00-A] | 53.5 | 92.2 | 0 |  |  |  |  |  | 
CCOC(=O)c1n[nH]c2c1C(=O)C(SCCCCO)=CC2=O [TPI-00410-00-A] | 59.6 | 91.7 | 1.85 |  |  |  |  |  | 
CCOC(=O)c1n[nH]c2c1C(=O)C(Sc1ccc(-c3ccccc3)cc1)=CC2=O [TPI-00411-00-A] | 70.5 | 97.4 | 0.75 |  |  |  |  |  | 
CCOC(=O)c1n[nH]c2c1C(=O)C(Sc1cccc(OC)c1)=CC2=O [TPI-00412-00-A] | 81.6 | 98 | 9.95 |  |  |  |  |  | 
CCOC(=O)c1n[nH]c2c1C(=O)C(SCCOCCOC)=CC2=O [TPI-00413-00-A] | 50.2 | 94.8 | 20.2 |  |  |  |  |  | 
CCOC(=O)c1n[nH]c2c1C(=O)C(SC1CCCC1)=CC2=O [TPI-00414-00-A] | 52.2 | 86.4 | 92.4 | 25 |  |  |  | 33 | 
CCOC(=O)c1n[nH]c2c1C(=O)C(Sc1ccccc1)=CC2=O [TPI-00415-00-A] | 79.7 | 97.5 | 7.05 |  |  |  |  |  | 
CCOC(=O)c1n[nH]c2c1C(=O)C(SCc1ccc(OC)cc1)=CC2=O [TPI-00416-00-A] | 64.3 | 96.5 | 89.9 | 25.8 |  |  |  | 33 | 
CCOC(=O)c1n[nH]c2c1C(=O)C(SCc1ccc(Cl)cc1)=CC2=O [TPI-00417-00-A] | 74.8 | 97.8 | 96.1 | 13.8 |  |  |  | 21 | 
CCOC(=O)c1n[nH]c2c1C(=O)C(SCc1ccco1)=CC2=O [TPI-00418-00-A] | 65.5 | 95.9 | 92.2 | 31.7 |  |  |  | 37 | 
CCCCCCCSC1=CC(=O)c2[nH]nc(C(=O)OCC)c2C1=O [TPI-00419-00-A] | 66.2 | 95.8 | 67.95 | 32 |  |  |  | 50 | 
CCOC(=O)c1n[nH]c2c1C(=O)C(SCCC(=O)OC)=CC2=O [TPI-00420-00-A] | 62 | 95.3 | 68.5 | 37.5 |  |  |  | 42 | 
CNC(=O)CSC1=CC(=O)c2[nH]ncc2C1=O [TPI-00421-00-A] | 100 | 100 | 70 | 17.9 |  | ~1020 |  | 41 | 
CCOC(=O)c1n[nH]c2c1C(=O)C(SCC(=O)Nc1ccccc1)=CC2=O [TPI-00422-00-A] | 22.9 | 86.8 | 0 | 48 |  |  |  | > 50 | 
O=C(Nc1ccccc1)c1n[nH]c2c1C(=O)C(SCCCCO)=CC2=O [TPI-00423-00-A] | 79.8 | 98 | 87.25 | 20 |  |  |  | 25 | 
O=C(Nc1ccccc1)c1n[nH]c2c1C(=O)C(SCc1ccc(C(F)(F)F)cc1)=CC2=O [TPI-00424-00-A] | 92.6 | 100 | 0 | 27 |  |  |  | 50 | 
